According to article PMC6152937 (Bioorganic & medicinal chemistry letters, 2018):

Columns and labels:
[1] = target: Dopamine receptor D5 (Homo sapiens, UniProt P21918); assay: Radio-ligand binding assay screen; conditions: cloned receptor; considered inactive
[2] = target: 5-HT1B (Homo sapiens, UniProt P28222); assay: Radio-ligand binding assay screen; conditions: cloned receptor; considered inactive
[3] = target: 5-HT3 (Homo sapiens, UniProt P46098); assay: Radio-ligand binding assay screen; conditions: cloned receptor; considered inactive
[4] = target: β1 adrenoreceptor (Homo sapiens, UniProt P08588); assay: Radio-ligand binding assay screen; conditions: cloned receptor; considered inactive
[5] = target: KOR (Homo sapiens, UniProt P41145); assay: Radio-ligand binding assay screen; conditions: cloned receptor; considered inactive
[6] = target: Muscarinic receptor MS (Homo sapiens, UniProt P08912); assay: Radio-ligand binding assay screen; conditions: cloned receptor; considered inactive
[7] = target: 5-HT7 (Homo sapiens, UniProt P34969); assay: Radio-ligand binding assay screen; conditions: cloned receptor; considered inactive
[8] = target: α1Δ adrenoreceptor (Homo sapiens, UniProt P25100); assay: Radio-ligand binding assay screen; conditions: cloned receptor; considered inactive
[9] = target: 5-HT6 (Homo sapiens, UniProt P50406); assay: Radio-ligand binding assay screen; conditions: cloned receptor; considered inactive
[10] = target: Histamine receptor H4 (Homo sapiens, UniProt Q9H3N8); assay: Radio-ligand binding assay screen; conditions: cloned receptor; considered inactive
[11] = target: rSigma2 (Rattus norvegicus, UniProt Q5U3Y7); assay: Radio-ligand binding assay screen; conditions: cloned receptor; considered inactive
[12] = target: 5-HT2C (Homo sapiens, UniProt P28335); assay: Radio-ligand binding assay screen; conditions: cloned receptor; considered inactive
[13] = target: 5-HT5A (Homo sapiens, UniProt P47898); assay: Radio-ligand binding assay screen; conditions: cloned receptor; considered inactive
[14] = target: Histamine receptor H3 (Homo sapiens, UniProt Q9Y5N1); assay: Radio-ligand binding assay screen; conditions: cloned receptor; considered inactive
[15] = target: Muscarinic receptor M3 (Homo sapiens, UniProt P20309); assay: Radio-ligand binding assay screen; conditions: cloned receptor; considered inactive
[16] = target: 5-HT1D (Homo sapiens, UniProt P28221); assay: Radio-ligand binding assay screen; conditions: cloned receptor; considered inactive
[17] = target: Dopamine receptor D2 (Homo sapiens, UniProt P14416); assay: Radio-ligand binding assay screen; conditions: cloned receptor; considered inactive
[18] = target: Muscarinic receptor M1 (Homo sapiens, UniProt P11229); assay: Radio-ligand binding assay screen; conditions: cloned receptor; considered inactive
[19] = target: NET (Homo sapiens, UniProt P23975); assay: Radio-ligand binding assay screen; conditions: cloned transporter; considered inactive
[20] = target: Dopamine receptor D4 (Homo sapiens, UniProt P21917); assay: Radio-ligand binding assay screen; conditions: cloned receptor; considered inactive
[21] = target: DOR (Homo sapiens, UniProt P41143); assay: Radio-ligand binding assay screen; conditions: cloned receptor; considered inactive
[22] = target: rSigma1 (Rattus norvegicus, UniProt Q9R0C9); assay: Radio-ligand binding assay screen; conditions: cloned receptor; considered inactive
[23] = target: 5-HT1A (Homo sapiens, UniProt P08908); assay: Radio-ligand binding assay screen; conditions: cloned receptor; considered inactive
[24] = target: DAT (Homo sapiens, UniProt Q01959); assay: Radio-ligand binding assay screen; conditions: cloned transporter; considered inactive
[25] = target: β3 adrenoreceptor (Homo sapiens, UniProt P13945); assay: Radio-ligand binding assay screen; conditions: cloned receptor; considered inactive
[26] = target: α1A adrenoreceptor (Homo sapiens, UniProt P35348); assay: Radio-ligand binding assay screen; conditions: cloned receptor; considered inactive
[27] = target: Histamine receptor H2 (Homo sapiens, UniProt P25021); assay: Radio-ligand binding assay screen; conditions: cloned receptor; considered inactive
[28] = target: β2 adrenoreceptor (Homo sapiens, UniProt P07550); assay: Radio-ligand binding assay screen; conditions: cloned receptor; considered inactive
[29] = target: α1B adrenoreceptor (Homo sapiens, UniProt P35368); assay: Radio-ligand binding assay screen; conditions: cloned receptor; considered inactive
[30] = target: Dopamine receptor D3 (Homo sapiens, UniProt P35462); assay: Radio-ligand binding assay screen; conditions: cloned receptor; considered inactive
[31] = target: α2A adrenoreceptor (Homo sapiens, UniProt P08913); assay: Radio-ligand binding assay screen; conditions: cloned receptor; considered inactive
[32] = target: 5-HT2A (Homo sapiens, UniProt P28223); assay: Radio-ligand binding assay screen; conditions: cloned receptor; considered inactive
[33] = target: 5-HT2B (Homo sapiens, UniProt P41595); assay: Radio-ligand binding assay screen; conditions: cloned receptor; considered inactive
[34] = target: 5-HT1E (Homo sapiens, UniProt P28566); assay: Radio-ligand binding assay screen; conditions: cloned receptor; considered inactive
[35] = target: Histamine receptor H1 (Homo sapiens, UniProt P35367); assay: Radio-ligand binding assay screen; conditions: cloned receptor; considered inactive
[36] = target: Muscarinic receptor M4 (Homo sapiens, UniProt P08173); assay: Radio-ligand binding assay screen; conditions: cloned receptor; considered inactive
[37] = target: Dopamine receptor D1 (Homo sapiens, UniProt P21728); assay: Radio-ligand binding assay screen; conditions: cloned receptor; considered inactive
[38] = target: MOR (Homo sapiens, UniProt P35372); assay: Radio-ligand binding assay screen; conditions: cloned receptor; considered inactive
[39] = target: Muscarinic receptor M2 (Homo sapiens, UniProt P08172); assay: Radio-ligand binding assay screen; conditions: cloned receptor; considered inactive
[40] = target: SERT (Homo sapiens, UniProt P31645); assay: Radio-ligand binding assay screen; conditions: cloned transporter; considered inactive
[41] = target: T1, human GABAB receptor (Homo sapiens, UniProt Q9UBS5); conditions: concentrations up to 100 μM, racemic mixtures
[42] = target: T1, human GABAB receptor; conditions: read-out: GABAB EC50; agonist activity, HEK293/Cre-luc, ± standard error; ref [19]; cited from earlier work

T1 sequence (Q9UBS5 15-961 limits assumed): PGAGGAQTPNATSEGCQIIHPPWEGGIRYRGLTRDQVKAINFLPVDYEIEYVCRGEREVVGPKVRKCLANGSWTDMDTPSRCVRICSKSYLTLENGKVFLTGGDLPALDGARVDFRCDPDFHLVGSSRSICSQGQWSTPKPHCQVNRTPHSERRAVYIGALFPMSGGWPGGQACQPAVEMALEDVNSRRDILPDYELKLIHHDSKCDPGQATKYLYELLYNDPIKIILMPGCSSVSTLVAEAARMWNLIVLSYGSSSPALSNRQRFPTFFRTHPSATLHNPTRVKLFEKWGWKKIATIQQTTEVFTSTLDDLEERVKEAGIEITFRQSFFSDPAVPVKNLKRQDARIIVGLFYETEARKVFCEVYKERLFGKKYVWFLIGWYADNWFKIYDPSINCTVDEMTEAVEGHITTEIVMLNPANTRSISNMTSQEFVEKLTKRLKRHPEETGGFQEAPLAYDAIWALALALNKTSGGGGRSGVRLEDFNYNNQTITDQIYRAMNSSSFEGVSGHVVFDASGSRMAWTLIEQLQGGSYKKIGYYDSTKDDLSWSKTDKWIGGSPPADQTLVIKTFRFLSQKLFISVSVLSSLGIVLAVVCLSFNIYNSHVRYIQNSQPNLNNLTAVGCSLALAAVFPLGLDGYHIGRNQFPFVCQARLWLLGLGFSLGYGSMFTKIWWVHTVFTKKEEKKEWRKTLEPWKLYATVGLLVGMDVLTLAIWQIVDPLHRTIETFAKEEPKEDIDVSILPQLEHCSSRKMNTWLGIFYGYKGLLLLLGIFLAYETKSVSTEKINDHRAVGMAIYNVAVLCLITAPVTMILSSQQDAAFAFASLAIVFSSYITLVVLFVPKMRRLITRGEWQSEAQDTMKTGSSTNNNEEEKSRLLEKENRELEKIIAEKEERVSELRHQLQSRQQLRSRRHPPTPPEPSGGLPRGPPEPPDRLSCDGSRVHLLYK
T1 sequence (O75899 42-941 partner): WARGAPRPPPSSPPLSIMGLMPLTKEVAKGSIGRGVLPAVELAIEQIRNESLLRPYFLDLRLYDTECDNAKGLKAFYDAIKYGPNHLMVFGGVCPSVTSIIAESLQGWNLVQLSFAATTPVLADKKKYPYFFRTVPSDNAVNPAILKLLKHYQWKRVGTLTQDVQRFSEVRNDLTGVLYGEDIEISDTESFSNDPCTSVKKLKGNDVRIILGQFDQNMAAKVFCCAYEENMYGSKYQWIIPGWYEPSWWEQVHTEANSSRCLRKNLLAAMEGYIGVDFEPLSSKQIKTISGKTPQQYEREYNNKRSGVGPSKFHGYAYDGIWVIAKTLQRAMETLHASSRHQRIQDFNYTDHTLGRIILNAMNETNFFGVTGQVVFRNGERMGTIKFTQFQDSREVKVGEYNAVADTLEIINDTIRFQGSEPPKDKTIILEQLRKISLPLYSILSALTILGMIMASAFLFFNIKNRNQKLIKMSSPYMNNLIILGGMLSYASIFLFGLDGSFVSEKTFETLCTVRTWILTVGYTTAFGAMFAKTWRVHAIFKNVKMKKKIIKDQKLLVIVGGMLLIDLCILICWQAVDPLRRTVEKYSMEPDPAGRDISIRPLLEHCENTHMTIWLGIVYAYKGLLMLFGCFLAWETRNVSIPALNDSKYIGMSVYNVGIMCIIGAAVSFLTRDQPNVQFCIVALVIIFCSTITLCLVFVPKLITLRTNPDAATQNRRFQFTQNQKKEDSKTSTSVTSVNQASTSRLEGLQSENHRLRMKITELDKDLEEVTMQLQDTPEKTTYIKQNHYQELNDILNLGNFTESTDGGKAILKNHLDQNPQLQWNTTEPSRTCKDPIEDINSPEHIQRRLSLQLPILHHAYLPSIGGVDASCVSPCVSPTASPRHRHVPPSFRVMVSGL
Chain of Dopamine receptor D2 (P14416 whole entry): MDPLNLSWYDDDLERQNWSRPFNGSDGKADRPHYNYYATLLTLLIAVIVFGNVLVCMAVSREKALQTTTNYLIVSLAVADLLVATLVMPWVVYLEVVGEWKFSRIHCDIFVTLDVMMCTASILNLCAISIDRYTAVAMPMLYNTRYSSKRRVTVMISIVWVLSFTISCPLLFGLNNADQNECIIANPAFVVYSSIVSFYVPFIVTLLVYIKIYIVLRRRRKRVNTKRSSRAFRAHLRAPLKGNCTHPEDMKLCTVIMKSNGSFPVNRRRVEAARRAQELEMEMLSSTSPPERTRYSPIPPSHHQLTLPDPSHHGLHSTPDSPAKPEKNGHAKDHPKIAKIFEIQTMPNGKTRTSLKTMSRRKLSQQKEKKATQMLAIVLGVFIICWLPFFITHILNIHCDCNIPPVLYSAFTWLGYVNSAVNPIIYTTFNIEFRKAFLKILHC
Chain of 5-HT6 (P50406 whole entry): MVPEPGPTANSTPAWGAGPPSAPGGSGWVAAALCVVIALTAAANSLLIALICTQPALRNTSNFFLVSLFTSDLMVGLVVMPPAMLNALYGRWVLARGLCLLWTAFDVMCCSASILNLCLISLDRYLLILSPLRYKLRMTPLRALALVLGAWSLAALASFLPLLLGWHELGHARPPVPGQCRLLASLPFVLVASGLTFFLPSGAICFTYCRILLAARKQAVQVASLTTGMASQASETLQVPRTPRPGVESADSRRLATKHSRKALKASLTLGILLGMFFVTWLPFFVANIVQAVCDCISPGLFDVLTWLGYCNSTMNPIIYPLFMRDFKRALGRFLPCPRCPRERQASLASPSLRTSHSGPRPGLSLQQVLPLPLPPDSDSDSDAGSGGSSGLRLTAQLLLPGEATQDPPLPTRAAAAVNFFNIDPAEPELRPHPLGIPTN
Chain of DOR (P41143 whole entry): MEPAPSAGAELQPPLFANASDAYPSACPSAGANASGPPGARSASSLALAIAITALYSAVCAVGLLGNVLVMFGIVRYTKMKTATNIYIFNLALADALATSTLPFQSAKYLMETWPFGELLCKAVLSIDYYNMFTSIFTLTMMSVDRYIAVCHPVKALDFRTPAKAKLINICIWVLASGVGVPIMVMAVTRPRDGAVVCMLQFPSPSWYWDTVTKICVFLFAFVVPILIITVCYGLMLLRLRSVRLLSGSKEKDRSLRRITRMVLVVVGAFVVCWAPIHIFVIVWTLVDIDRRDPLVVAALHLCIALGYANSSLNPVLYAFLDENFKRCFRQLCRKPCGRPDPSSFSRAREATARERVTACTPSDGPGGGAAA
Chain of α1B adrenoreceptor (P35368 whole entry): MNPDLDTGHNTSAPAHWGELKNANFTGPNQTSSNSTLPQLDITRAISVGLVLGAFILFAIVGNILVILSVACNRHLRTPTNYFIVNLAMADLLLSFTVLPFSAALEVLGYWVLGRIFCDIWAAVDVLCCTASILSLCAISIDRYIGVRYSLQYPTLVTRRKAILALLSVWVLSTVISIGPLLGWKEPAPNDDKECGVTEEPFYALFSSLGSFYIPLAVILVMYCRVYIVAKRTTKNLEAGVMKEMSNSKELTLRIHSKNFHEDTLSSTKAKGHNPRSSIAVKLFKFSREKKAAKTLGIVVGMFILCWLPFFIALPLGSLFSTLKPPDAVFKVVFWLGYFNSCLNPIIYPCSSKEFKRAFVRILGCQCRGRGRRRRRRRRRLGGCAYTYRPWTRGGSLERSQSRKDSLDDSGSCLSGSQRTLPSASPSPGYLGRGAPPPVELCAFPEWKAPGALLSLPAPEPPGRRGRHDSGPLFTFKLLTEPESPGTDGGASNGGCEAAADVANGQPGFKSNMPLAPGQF
Chain of Histamine receptor H2 (P25021 whole entry): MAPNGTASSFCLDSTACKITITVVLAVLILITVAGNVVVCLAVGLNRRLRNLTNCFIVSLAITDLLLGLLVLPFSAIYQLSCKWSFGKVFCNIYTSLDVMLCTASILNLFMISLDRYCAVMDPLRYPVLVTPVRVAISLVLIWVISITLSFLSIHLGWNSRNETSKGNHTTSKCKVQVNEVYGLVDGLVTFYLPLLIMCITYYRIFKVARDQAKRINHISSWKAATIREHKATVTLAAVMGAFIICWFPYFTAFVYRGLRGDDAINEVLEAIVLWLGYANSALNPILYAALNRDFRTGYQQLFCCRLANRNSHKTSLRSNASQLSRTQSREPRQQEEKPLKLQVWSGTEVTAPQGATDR
Chain of rSigma1 (Q9R0C9 whole entry): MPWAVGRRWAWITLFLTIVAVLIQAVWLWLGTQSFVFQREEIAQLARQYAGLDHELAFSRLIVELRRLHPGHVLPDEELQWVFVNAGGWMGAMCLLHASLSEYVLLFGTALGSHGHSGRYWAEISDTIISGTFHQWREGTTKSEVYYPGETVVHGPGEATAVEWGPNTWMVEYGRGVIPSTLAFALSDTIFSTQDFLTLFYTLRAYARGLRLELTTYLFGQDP
Chain of Muscarinic receptor M1 (P11229 whole entry): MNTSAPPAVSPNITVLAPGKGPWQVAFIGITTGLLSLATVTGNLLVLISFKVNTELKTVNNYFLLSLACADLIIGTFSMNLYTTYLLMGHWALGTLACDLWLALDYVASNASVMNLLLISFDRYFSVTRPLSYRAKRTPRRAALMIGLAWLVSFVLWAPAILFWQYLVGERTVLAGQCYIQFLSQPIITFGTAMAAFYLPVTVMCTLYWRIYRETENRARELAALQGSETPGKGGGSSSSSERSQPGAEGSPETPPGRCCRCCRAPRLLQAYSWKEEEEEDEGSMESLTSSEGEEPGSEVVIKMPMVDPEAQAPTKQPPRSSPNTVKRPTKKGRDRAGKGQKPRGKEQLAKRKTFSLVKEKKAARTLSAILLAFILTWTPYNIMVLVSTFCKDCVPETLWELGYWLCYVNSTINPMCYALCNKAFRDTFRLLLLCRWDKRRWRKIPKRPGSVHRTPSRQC
Chain of rSigma2 (Q5U3Y7 whole entry): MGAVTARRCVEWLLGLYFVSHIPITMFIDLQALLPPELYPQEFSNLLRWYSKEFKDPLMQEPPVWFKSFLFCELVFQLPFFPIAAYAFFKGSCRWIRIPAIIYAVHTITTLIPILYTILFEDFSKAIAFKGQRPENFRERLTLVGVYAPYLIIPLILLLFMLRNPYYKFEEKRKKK

CC(=O)c1ccc(C(O)C(F)(F)C(=O)C23CC4CC(CC(C4)C2)C3)cc1 (stereo not drawn) [Compound 3]
less than 30%: inhibition, D5 [1] | inhibition, 5-HT1B [2] | inhibition, 5-HT3 [3] | inhibition, β1 [4] | inhibition, KOR [5] | inhibition, MS [6] | inhibition, 5-HT7 [7] | inhibition, α1Δ [8] | inhibition, 5-HT6 [9] | inhibition, H4 [10] | inhibition, rSigma2 [11] | inhibition, 5-HT2C [12] | inhibition, 5-HT5A [13] | inhibition, H3 [14] | inhibition, M3 [15] | inhibition, 5-HT1D [16] | inhibition, D2 [17] | inhibition, M1 [18] | inhibition, NET [19] | inhibition, D4 [20] | inhibition, DOR [21] | inhibition, rSigma1 [22] | inhibition, 5-HT1A [23] | inhibition, DAT [24] | inhibition, β3 [25] | inhibition, α1A [26] | inhibition, H2 [27] | inhibition, β2 [28] | inhibition, α1B [29] | inhibition, D3 [30] | inhibition, α2A [31] | inhibition, 5-HT2A [32] | inhibition, 5-HT2B [33] | inhibition, 5-HT1E [34] | inhibition, H1 [35] | inhibition, M4 [36] | inhibition, D1 [37] | inhibition, MOR [38] | inhibition, M2 [39] | inhibition, SERT [40]

CCc1ccc(C(O)C(F)(F)C(=O)C23CC4CC(CC(C4)C2)C3)cc1 (stereo not drawn) [Compound 4]
inactive: Agonist activity at the GABAB receptor (in words) [41]

O=C(C12CC3CC(CC(C3)C1)C2)C(F)(F)C(O)/C=C/c1ccccc1 (stereo not drawn) [Compound 9]
40 ± 3.59 µM: EC50 [42]

CC(C)(C)OC(=O)NC(c1ccccc1)C(F)(F)C(=O)c1ccc2ccccc2c1 (stereo not drawn) [Compound 11]
less than 30%: inhibition, D5 [1] | inhibition, 5-HT1B [2] | inhibition, 5-HT3 [3] | inhibition, β1 [4] | inhibition, KOR [5] | inhibition, MS [6] | inhibition, 5-HT7 [7] | inhibition, α1Δ [8] | inhibition, 5-HT6 [9] | inhibition, H4 [10] | inhibition, rSigma2 [11] | inhibition, 5-HT2C [12] | inhibition, 5-HT5A [13] | inhibition, H3 [14] | inhibition, M3 [15] | inhibition, 5-HT1D [16] | inhibition, D2 [17] | inhibition, M1 [18] | inhibition, NET [19] | inhibition, D4 [20] | inhibition, DOR [21] | inhibition, rSigma1 [22] | inhibition, 5-HT1A [23] | inhibition, DAT [24] | inhibition, β3 [25] | inhibition, α1A [26] | inhibition, H2 [27] | inhibition, β2 [28] | inhibition, α1B [29] | inhibition, D3 [30] | inhibition, α2A [31] | inhibition, 5-HT2A [32] | inhibition, 5-HT2B [33] | inhibition, 5-HT1E [34] | inhibition, H1 [35] | inhibition, M4 [36] | inhibition, D1 [37] | inhibition, MOR [38] | inhibition, M2 [39] | inhibition, SERT [40]

C/C=C/C=C/C(NCc1ccccc1)C(F)(F)C(=O)c1ccc2ccccc2c1 (stereo not drawn) [Compound 16]
inactive: Agonist activity at the GABAB receptor (in words) [41]

O=C(c1ccc(Cl)cc1)C(F)(F)C(NCc1ccccc1)c1ccccc1 (stereo not drawn) [Compound 17]
moderate activity: Agonist activity at the GABAB receptor (in words) [41]
